Key:
human CRTH2 [1] = biological target: T1, human CRTH2 (Homo sapiens, UniProt Q9Y5Y4); experiment: Human CRTH2 Receptor Binding Assay (whole cell, [3H]ramatroban); parameters: expressed in transfected cells; host or cells: CHO-K1; settings: whole CHO-K1 cells stably expressing human CRTH2 and G-alpha16; 20 nM [3H]ramatroban; 1 hour, room temperature
T1 sequence (Q9Y5Y4 1-395): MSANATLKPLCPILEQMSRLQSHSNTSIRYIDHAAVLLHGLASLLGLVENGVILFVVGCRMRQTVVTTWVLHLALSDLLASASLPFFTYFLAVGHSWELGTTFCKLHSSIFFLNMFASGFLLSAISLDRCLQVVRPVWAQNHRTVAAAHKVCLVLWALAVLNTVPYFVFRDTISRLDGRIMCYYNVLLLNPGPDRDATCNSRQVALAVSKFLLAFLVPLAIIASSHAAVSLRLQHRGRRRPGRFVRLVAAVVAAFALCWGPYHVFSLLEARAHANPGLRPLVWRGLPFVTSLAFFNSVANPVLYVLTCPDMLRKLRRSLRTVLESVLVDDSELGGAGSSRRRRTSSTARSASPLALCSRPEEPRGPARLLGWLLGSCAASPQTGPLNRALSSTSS
From the text: A whole cell receptor binding assay using [^3H]ramatroban as the competing radioactive ligand was employed to evaluate the compound binding activity to human CRTH2. The radioactive ligand [^3H]ramatroban was synthesized according to Sugimoto et. al. (Eur. J. Pharmacol. 524, 30-37, 2005) to a specific activity of 42 Ci/mmol.
A cell line stably expressing human CRTH2 was established by transfecting CHO-K1 cells with two mammalian expression vectors that harbored human CRTH2 and G-alpha16 cDNAs, respectively, using FuGene® 6 transfection reagent (from Roche). Stable clones expressing CRTH2 were selected by staining each clone with BM16 (BD Pharmingen™ from BD Biosciences, a division of Becton, Dickinson and Company), which is a rat monoclonal antibody to human CRTH2. The cells were maintained as monolayer cultures in Ham's F-12 medium containing 10% fetal bovine serum, 100 units/mL penicillin, 100 μg/mL streptomycin, 2 mM glutamine, 0.5 mg/mL G418 (geneticin) for CRTH2, and 0.2 mg/mL hygromycin-B (for G-alpha 16). For whole cell receptor binding assay, the monolayer cells were rinsed once with PBS (phosphate buffered saline), dissociated using ethylenediaminetetraacetate (Versene™ EDTA from Lonza Inc.), and suspended in PBS containing 10 mM MgCl2 and 0.06% BSA (bovine serum albumin) at 1.5×10^6 cells/mL.
The binding reactions (0.2 mL) were performed in 96-well plates at room temperature in PBS containing 1.5×10^5 cells, 10 mM MgCl2, 0.06% BSA, 20 nM [^3H]ramatroban, and test compound at various concentrations. After 1 hour of binding reactions, the cells were harvested on GF™/B filter microplates (microtiter plates with embedded glass fiber from PerkinElmer, Inc.) and washed 5 times with PBS using a Filtermate™ Harvester (a cell harvester that harvests and washes cells from microplates from PerkinElmer, Inc.). The radioactivities bound to the cells were determined using a microplate scintillation counter (TopCount® NXT, from PerkinElmer, Inc.) after adding 50 μL of Microscint™ 20 scintillation fluid (from PerkinElmer, Inc.) to each well of the filter plates. The radioactivity from non-specific binding was determined by replacing compound with 10 μM of 15(R)-15-methyl PGD2 (from Cayman Chemical Company) in the reaction mixtures. The radioactivity bound to the cells in the absence of compound (total binding) was determined by replacing compound with 0.25% of DMSO (dimethyl sulfoxide) in the reaction mixture. Specific binding data were obtained by subtracting the radioactivity of non-specific binding from each binding data.
The IC50 value is defined as the concentration of the tested compound that is required for 50% inhibition of total specific binding. In order to calculate the IC50 value, the percent inhibition data were determined for 7 concentrations for each compound. The percent inhibition for a compound at each concentration was calculated according to the following formula, [1-(specific binding in the presence of compound)/(total specific binding)]×100. The IC50 value was then obtained by fitting the percent inhibition data to a sigmoidal dose-response (4 parameter logistic) model in the XLfit® software Excel add-in program [from ID Business Solutions Ltd., model 205, where F(x)=(A+(B−A)/(1+((C/x)^D)))].

human CRTH2 [2] = biological target: T1, human CRTH2; experiment: Calcium Flux Assay Using Fluorometric Imaging Plate Reader (FLIPR); assay type: cell-based; parameters: expressed in transfected cells; host or cells: CHO-K1 (previously transfected with G-alpha 16); settings: CHO-K1 cells transfected with G-alpha 16 and human CRTH2 receptor; inhibition of ligand (DK-PGD2) induced Ca2+ flux
Protocol: Calcium Flux Assay Using Fluorometric Imaging Plate Reader Cell Culture Conditions:
CHO-K1 cells previously transfected with G-alpha 16 were subsequently transfected with the human CRTH2 receptor and the neomycin resistance gene. Following selection in 800 μg/mL G418 (geneticin), individual clones were assayed for their receptor expression based on staining with an anti human CRTH2 IgG, followed by assaying for their response to 13,14-dihydro-15-keto Prostaglandin D2 (DK-PDG2) (ligand) in the Ca^2+Flux assay. Positive clones were then cloned by limiting dilution cloning. The transfected cells were cultured in Ham's F-12 medium supplemented with 10% fetal bovine serum, 2 mM glutamine, 100 U/mL penicillin/100 μg/mL streptomycin, 200 μg/mL hygromycin B, and 800 μg/mL G418 (geneticin). Cells were harvested with trypsin-EDTA (trypsin-ethylenediaminetetraacetic acid) and counted using ViaCount® reagent (from Guava Technologies, Inc. which contains two DNA-binding dyes that enable the reagent user to distinguish between viable and non-viable cells). The cell suspension volume was adjusted to 2.5×10^5 cells/mL with complete growth media. Aliquots of 50 μL were dispensed into BD Falcon™ 384 well black/clear microplates (from BD Biosciences, a division of Becton, Dickinson and Company) and the microplates were placed in a 37° C. CO2 incubator overnight. The following day, the microplates were used in the assay.
Loading Buffer containing dye (from the FLIPR® Calcium 3 Assay Kit from Molecular Devices, a division of MDS Analytical Technologies and MDS Inc.) was prepared by dissolving the contents of one bottle into 200 mL Hank's Balanced Salt Solution containing 20 mM HEPES (4-(2-hydroxyethyl)-1-piperazineethanesulfonic acid) and 2.5 mM probenecid. Growth media was removed from the cell plates and 25 μL of Hank's Balanced Salt Solution (HBSS) containing 20 mM HEPES, 0.05% BSA and 2.5 mM probenecid was added to each well followed by 25 μL of diluted dye using a Multidrop dispenser. The plates were then incubated for 1 hour at 37° C.
During the incubation, test compound plates were prepared by adding 90 μL of HBSS/20 mM HEPES/0.005% BSA buffer to the 2 μL of serial diluted compounds. To prepare serial diluted compounds, 20 mM stocks of compounds were dissolved in 100% DMSO. The compound dilution plate was set up as follows: well #1 received 5 μL of compound plus 10 μL of DMSO. Wells 2-10 received 10 μL of DMSO. 5 μL was mixed and transferred from well #1 into well #2. 1:3 serial dilutions were continued out 10 steps. […]
After incubation, both the cell and “assay plate” plates were brought to the fluorometric imaging plate reader (FLIPR®) and 20 μL of the diluted compounds were transferred to the cell plates by the FLIPR®. […] During the assay, fluorescence readings were taken simultaneously from all 384 wells of the cell plate every 1.5 seconds. Five readings were taken to establish a stable baseline, then 20 μL of sample was rapidly (30 μL/sec) and simultaneously added to each well of the cell plate. The fluorescence was continuously monitored before, during and after sample addition for a total elapsed time of 100 seconds. Responses (increase in peak fluorescence) in each well following agonist addition were determined. The initial fluorescence reading from each well, prior to ligand stimulation, was used as a zero baseline value for the data from that well. The responses were expressed as % inhibition of the buffer control. […]

IC50 (human CRTH2 [1]) [nM] | IC50 (human CRTH2 [2]) [nM] | SMILES
458 | > 5000 | COc1ccccc1N1CCN(C(=O)c2c(C)c(CC(=O)O)cc3ccc(F)cc23)CC1 [Example 2-8, {6-Fluoro-4-[4-(2-methoxy-phenyl)-piperazine-1-carbonyl]-3-methyl-naphthalen-2-yl}-acetic acid]
450 | > 5000 | CCc1ccccc1N1CCN(C(=O)c2c(C)c(CC(=O)O)cc3ccc(F)cc23)CC1 [Example 2-10, {4-[4-(2-Ethyl-phenyl)-piperazine-1-carbonyl]-6-fluoro-3-methyl-naphthalen-2-yl}-acetic acid]
253 | > 5000 | Cc1c(CC(=O)O)cc2ccc(F)cc2c1C(=O)N1CCN(c2ccccc2C(F)(F)F)CC1 [Example 2-15, {6-Fluoro-3-methyl-4-[4-(2-trifluoromethyl-phenyl)-piperazine-1-carbonyl]-naphthalen-2-yl}-acetic acid]
20.3 | > 5000 | CCS(=O)(=O)N1CCC(Oc2cc(CC(=O)O)cc3ccc(F)cc23)CC1 [Example 4-2, [4-(1-Ethanesulfonyl-piperidin-4-yloxy)-6-fluoro-naphthalen-2-yl]-acetic acid]
163 | > 5000 | CC(=O)N1CCC(Oc2cc(CC(=O)O)cc3ccc(F)cc23)CC1 [Example 5-1, [4-(1-Acetyl-piperidin-4-yloxy)-6-fluoro-naphthalen-2-yl]-acetic acid]
19.4 |  | O=C(O)Cc1cc(OC2CCN(C(=O)c3ccccc3F)CC2)c2cc(F)ccc2c1 [Example 5-7, {6-Fluoro-4-[1-(2-fluoro-benzoyl)-piperidin-4-yloxy]-naphthalen-2-yl}-acetic acid]
29.8 |  | O=C(O)Cc1cc(OC2CCN(C(=O)c3cccc(F)c3)CC2)c2cc(F)ccc2c1 [Example 5-8, {6-Fluoro-4-[1-(3-fluoro-benzoyl)-piperidin-4-yloxy]-naphthalen-2-yl}-acetic acid]
31.3 |  | O=C(O)Cc1cc(OC2CCN(C(=O)c3ccc(F)cc3)CC2)c2cc(F)ccc2c1 [Example 5-9, {6-Fluoro-4-[1-(4-fluoro-benzoyl)-piperidin-4-yloxy]-naphthalen-2-yl}-acetic acid]
2.9 |  | O=C(O)Cc1cc(OC2CCN(C(=O)Cc3ccccc3)CC2)c2cc(F)ccc2c1 [Example 5-10, [6-Fluoro-4-(1-phenylacetyl-piperidin-4-yloxy)-naphthalen-2-yl]-acetic acid]
24.5 |  | CCNC(=O)N1CCC(Oc2cc(CC(=O)O)cc3ccc(F)cc23)CC1 [Example 6-1, [4-(1-Ethylcarbamoyl-piperidin-4-yloxy)-6-fluoro-naphthalen-2-yl]-acetic acid]
4.3 |  | O=C(O)Cc1cc(OC2CCN(C(=O)Nc3ccccc3F)CC2)c2cc(F)ccc2c1 [Example 6-2, {6-Fluoro-4-[1-(2-fluoro-phenylcarbomoyl)-piperidin-4-yloxy]-naphthalen-2-yl}-acetic acid]
3 |  | O=C(O)Cc1cc(OC2CCN(C(=O)Nc3cccc(F)c3)CC2)c2cc(F)ccc2c1 [Example 6-3, {6-Fluoro-4-[1-(3-fluoro-phenylcarbamoyl)-piperidin-4-yloxy]-naphthalen-2-yl}-acetic acid]
5 |  | O=C(O)Cc1cc(OC2CCN(C(=O)Nc3ccc(F)cc3)CC2)c2cc(F)ccc2c1 [Example 6-4, {6-Fluoro-4-[1-(4-fluoro-phenylcarbamoyl)-piperidin-4-yloxy]-naphthalen-2-yl}-acetic acid]
4 |  | O=C(O)Cc1cc(OC2CCN(C(=O)NCCc3ccccc3)CC2)c2cc(F)ccc2c1 [Example 6-5, [6-Fluoro-4-(1-phenethylcarbamoyl-piperidin-4-yloxy)-naphthalen-2-yl]-acetic acid]
